Results from patent US8026257B2 (Bristol-Myers Squibb Company, priority 2007, dated 2011).

Tests used:
[1] = background statement, literature reports; cited from earlier work
[2] = biological target: T1, NK-1 (Homo sapiens, UniProt P25103); assay: NK1 radioligand binding assay ([125I]Substance P, U373 membranes); settings: U373 cell membranes, 200 pM [125I]Substance P, 1 hour at room temperature
T1 construct: 30 ul/well of a 2×U373 membrane preparation
Summary of the method: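 U373 cell membranes incubated 1 h at room temperature with [125I]Substance P at its Kd (added as 400 pM 2× solution) in Tris-Cl pH 7.5 with MgCl2, BSA, bacitracin and protease inhibitors. Bound radioligand collected on PEI-treated GF/B filters and counted. IC50 from four-parameter fit of triplicates; L-733,060 defined 100% inhibition.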

[3] = biological target: hSERT (Homo sapiens, UniProt P31645); assay: SERT radioligand binding assay ([125I]RTI-55, HEK-hSERT membranes); settings: HEK-293 hSERT membranes, 260 pM [125I]RTI-55, 1 hour at room temperature; read-out: SERT IC50
Chain of hSERT (P31645 whole entry): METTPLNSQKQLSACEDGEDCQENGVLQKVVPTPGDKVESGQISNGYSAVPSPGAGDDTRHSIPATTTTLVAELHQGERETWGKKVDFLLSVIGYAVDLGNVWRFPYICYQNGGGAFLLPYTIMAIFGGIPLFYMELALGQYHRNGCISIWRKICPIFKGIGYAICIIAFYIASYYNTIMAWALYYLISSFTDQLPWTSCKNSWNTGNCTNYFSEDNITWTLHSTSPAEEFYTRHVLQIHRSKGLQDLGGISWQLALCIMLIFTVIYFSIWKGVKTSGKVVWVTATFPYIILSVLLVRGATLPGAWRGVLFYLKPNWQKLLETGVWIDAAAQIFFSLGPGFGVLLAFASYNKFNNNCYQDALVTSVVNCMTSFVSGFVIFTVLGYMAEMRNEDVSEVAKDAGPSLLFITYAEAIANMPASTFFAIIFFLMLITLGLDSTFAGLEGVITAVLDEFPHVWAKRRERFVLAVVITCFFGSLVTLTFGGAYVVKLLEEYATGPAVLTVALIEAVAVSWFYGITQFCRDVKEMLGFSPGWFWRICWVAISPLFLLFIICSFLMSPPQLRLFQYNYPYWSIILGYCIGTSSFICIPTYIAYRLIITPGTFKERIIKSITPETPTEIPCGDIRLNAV
Summary of the method: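 Crude membranes from HEK-293 cells expressing hSERT (15 ug/ml, 2× stock) were incubated 1 hour at room temperature with [125I]RTI-55 (520 pM, 2× stock; at Kd) in pH 7.5 Tris, 120 mM NaCl, 5 mM KCl. Bound ligand was collected by GF/B filtration and scintillation counted. IC50 came from four-parameter fit, fluoxetine defining 100% inhibition.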

T1 sequence (P25103 whole entry): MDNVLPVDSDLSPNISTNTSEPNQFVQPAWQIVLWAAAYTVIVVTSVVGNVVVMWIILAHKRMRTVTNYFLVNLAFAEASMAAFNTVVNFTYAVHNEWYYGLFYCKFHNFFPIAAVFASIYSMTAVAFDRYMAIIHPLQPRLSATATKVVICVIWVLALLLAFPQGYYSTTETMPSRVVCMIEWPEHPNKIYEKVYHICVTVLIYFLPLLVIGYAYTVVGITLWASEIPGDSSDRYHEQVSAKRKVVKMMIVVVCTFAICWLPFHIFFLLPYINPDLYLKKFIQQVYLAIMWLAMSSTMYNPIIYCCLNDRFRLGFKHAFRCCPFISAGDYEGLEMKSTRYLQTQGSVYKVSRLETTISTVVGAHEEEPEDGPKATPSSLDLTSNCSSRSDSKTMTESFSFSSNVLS

SMILES	antidepressant activity [1]	IC50 [2] [nM]	IC50 [3] [nM]
COc1ccc(OC(F)(F)F)cc1CN[C@H]1CCCN[C@H]1c1ccccc1 [CP-122,721]	Robust antidepressant activity		
CN1CCC(COC(CC#N)c2cc(Cl)cc3cn[nH]c23)(c2ccc(F)cc2)CC1 (centres unmarked) [Example 110, 3-(5-chloro-1H-indazol-7-yl)-3-((4-(4-fluorophenyl)-1-methylpiperidine-4-yl)methoxy)propanenitrile]		0.01 to 100	0.01 to 100
CN(C)CC(OCC1(c2ccc(F)cc2)CCNCC1)c1cc(Cl)cc2cn[nH]c12 (centres unmarked) [Example 111, 2-(5-chloro-1H-indazol-7-yl)-2-((4-(4-fluorophenyl)piperidine-4-yl)methoxy)-N,N-dimethylethanamine]		> 300	0.01 to 100
CN(C)CC(OCC1(c2ccc(F)cc2)CCN(C)CC1)c1cc(Cl)cc2cn[nH]c12 (centres unmarked) [Example 112, 2-(5-chloro-1H-indazol-7-yl)-2-((4-(4-fluorophenyl)-1-methylpiperidine-4-yl)methoxy)-N,N-dimethylethanamine]		> 300	100 to 300
CN1CCC(COC(c2cc(Cl)cc3cn[nH]c23)C(F)F)(c2ccc(F)cc2)CC1 (centres unmarked) [Example 113, 5-chloro-7(2,2-difluoro-1-((4-(4-fluorophenyl)-1-methylpiperidin-4-yl)methoxy)ethyl)-1H-indazole]		0.01 to 100	0.01 to 100
CCC(OCC1(c2ccc(F)cc2)CCNCC1)c1cc(Cl)cc2cn[nH]c12 (centres unmarked) [Example 114, 5-chloro-7-(1-((4-(4-fluorophenyl)piperidin-4-yl)methoxy)propyl)-1H-indazole]		0.01 to 100	0.01 to 100
CCC(OCC1(c2ccc(F)cc2)CCN(C)CC1)c1cc(Cl)cc2cn[nH]c12 (centres unmarked) [Example 115, 5-chloro-7-(1-((4-(4-fluorophenyl)-1-methylpiperidin-4-yl)methoxy)propyl)-1H-indazole]		0.01 to 100	0.01 to 100
C[C@@H](OCC1(c2ccc(F)cc2)CCN(C)CC1)c1cc(Cl)cc2c(Cl)n(CC(F)(F)F)nc12 [Example 116, (R)-3,5-dichloro-7-(1-((4-(4-fluorophenyl-1-methyl)piperidine-4-yl)methoxy)ethyl)-2-(2,2,2-trifluoroethyl)-2H-indazole]		0.01 to 100	0.01 to 100
C[C@@H](OCC1(c2ccccc2)CCN(C)CC1)c1cc(Cl)cc2c(Br)n[nH]c12 [Example 118, (R)-3-bromo-5-chloro-7-(1-((1-methyl-4-phenylpiperidin-4yl)methoxy)ethyl)-1H-indazole]		0.01 to 100	0.01 to 100
C[C@@H](OCC1(c2ccccc2)CCNCC1)c1cc(Cl)cc2c(Cl)n[nH]c12 [Example 119, (R)-3,5-dichloro-7-(1-((4-phenylpiperidin-4yl)methoxy)ethyl)-1H-indazole]		0.01 to 100	0.01 to 100
C[C@@H](OCC1(c2ccccc2)CCN(C)CC1)c1cc(Cl)cc2c(Cl)n[nH]c12 [Example 120, (R)-3,5-dichloro-7-(1-((1-methyl-4-phenylpiperidin-4yl)methoxy)ethyl)-1H-indazole]		0.01 to 100	0.01 to 100
C[C@H](OCC1(c2ccc(F)cc2)CCNCC1)c1cc(Cl)cc2c(Cl)n[nH]c12 [Example 121, (S)-3,5-dichloro-7-(1-((4-(4-fluorophenyl)piperidin-4-yl)methoxy)ethyl)-1h-indazole]		> 300	0.01 to 100
C[C@H](OCC1(c2ccc(F)cc2)CCN(C)CC1)c1cc(Cl)cc2c(Cl)n[nH]c12 [Example 122, (S)-3,5-dichloro-7-(1-((4-(4-fluorophenyl)-1-methylpiperidin-4-yl)methoxy)ethyl)-1h-indazole]		> 300	0.01 to 100
Cc1cn(C)c2c(C(C)OCC3(c4ccc(F)cc4)CCN(C)CC3)cc(C(F)(F)F)cc12 (centres unmarked) [Example 125, 7-(1-((4-(4-fluorophenyl)-1-methylpiperidin-4-yl)methoxy)ethyl)-1,3-dimethyl-5-(trifluoromethyl)-1H-indole]		0.01 to 100	0.01 to 100
CN1CCC(COCc2cc(Br)cc3ncn(CC4CC4)c23)(c2ccccc2)CC1 [Example 132]		0.01 to 100	0.01 to 100
CCn1cnc2c([C@@H](C)OCC3(c4ccccc4)CCN(C)CC3)cc(C(F)(F)F)cc21 [Example 138, (R)-1-ethyl-4-(1-((1-methyl-4-phenylpiperidin-4-yl)methoxy)ethyl)-6-(trifluoromethyl)-1H-benzo[d]imidazole]		0.01 to 100	0.01 to 100
C[C@@H](O[C@H]1OCCN(Cc2n[nH]c(=O)[nH]2)[C@H]1c1ccc(F)cc1)c1cc(C(F)(F)F)cc(C(F)(F)F)c1 [MK-869]	Robust antidepressant activity		
